# Laboratory results published in US20100029654A1, “CARDIOVASCULAR COMPOSITIONS AND USE OF THE SAME FOR THE TREATMENT OF ALZHEIMER'S DISEASE” (MOUNT SINAI SCHOOL OF MEDICINE, priority 2006, published 2010).
# Where a name gives a salt, the structure may show the parent alone. Read-outs that look alike come from different tables or passages of the source.
# How the values were obtained:
# [1] = system: primary cortico-hippocampal neuron cultures; assay: lactate dehydrogenase (LDH) activity assay in parallel neuron cultures
# Procedure: For in vitro treatments drugs available from “The Spectrum Collection” in stocks of 10 mM in DMSO were applied directly to cultures to the desired concentrations (final 1% DMSO); control primary neuron cultures from Tg2576 embryos were treated with vehicle resulting in a final 1% DMSO.
# Cell viability was assessed using a commercial available LDH assay kit according to the manufacture's instruction (Promega).
# Aβ1-42 = Aβ1-42 content in conditioned medium of primary cortico-hippocampal neuron cultures from Tg2576 mice (ELISA; primary and secondary dose-response screening); format: cell-based, mouse; details: for activity at 100 µM: Mus musculus, Neuron, 24 h, read-out: Ab1-42 (% of ctl); for activity at 100 µM / Ab1-42 (% of ctl): drug 100 μM; for reducing Aβ1-42: <85% of ctl
# Procedure: (§1) Potential Aβ-lowering activity was assessed for 150 commercially available cardiovascular drugs using primary cortico-hippocampal neuron cultures derived from embryonic Tg2576 (El 6). […] All cardiovascular reagents were obtained from MicroSource Discovery Systems Inc (Gaylordsville, Conn.). […] Individual cardiovascular agents were applied directly to the culture medium (final 1% DMSO in the culture media). In control studies, parallel Tg2576 primary neuron cultures were treated with vehicle (1% DMSO) alone. The influence of drug treatments in Aβ content in the conditioned medium in treated cultures was assessed by assessing steady state levels of Aβ1-40 and Aβ1-42 in the culture media 24 hours after treatment.
# (§2) Embryonic brain tissue was mechanically triturated and centrifuged. Neurons were seeded onto poly-D-lysine-coated 96-well plates at 1.0×10^5 cells per well and cultured in the serum-free chemically-defined medium Neurobasal, supplemented with 2% B27, 0.5 mM L-glutamine and 1% penicillin-streptomycin (Gibco-BRL).
# (§3) For primary screening, cultured neurons were treated with 100 μM of drug in duplicates for 16 hours; all drugs were obtained in stock from MicroSource Discovery Systems Inc (Gaylordsville, Conn.). Conditioned medium was collected for Aβ detection using commercially available ELISA kits (BioSource). […] Primary neurons prepared in 96-well plates were treated with 0.1 μM, 1 μM, 10 μM, 50 μM, and 100 μM of each drug in duplicate for ˜16 hours and conditioned medium was collected for Aβ detection.
# Aβ1-40 = Aβ1-40 content in conditioned medium of primary cortico-hippocampal neuron cultures from Tg2576 mice (ELISA; primary and secondary dose-response screening); format: cell-based, mouse; details: for activity at 100 µM: Mus musculus, Neuron, 24 h, read-out: Ab1-40 (% of ctl); for activity at 100 µM / Ab1-40 (% of ctl): drug 100 μM; for reduced Aβ1-40: <85% of ctl
# Procedure: as §1, §2, §3
# [2] = system: primary cortico-hippocampal neuron cultures; assay: MTT in primary screening
# [3] = Primary Screening, table sorted by Aβ1-40
# [4] = primary screening, table sorted by Aβ1-42
# [5] = primary screening, Tg2576 neuron cultures, table sorted by Aβ1-42
smiles,measurement,setting,value
CC(C)c1nc(N(C)S(C)(=O)=O)nc(-c2ccc(F)cc2)c1/C=C/[C@@H](O)C[C@@H](O)CC(=O)O [Rosuvastatin],LDH (% of ctl),[1]; [3],298.7 % of ctl
same,LDH (% of ctl),[1]; [4],298.7 % of ctl
same,activity at 100 µM,Aβ1-42; [3],65.6%
same,activity at 100 µM,Aβ1-42; [5],65.6%
same,reducing Aβ1-42,Aβ1-42; primary screening,useful in reducing Aβ1-42
same,activity at 100 µM,Aβ1-40; [3],83.6%
same,activity at 100 µM,Aβ1-40; [5],83.6%
same,reduced Aβ1-40,Aβ1-40; primary screening,reduced Aβ1-40
same,MTT (% of ctl),[2]; [3],103.8 % of ctl
same,MTT (% of ctl),[2]; [4],103.8 % of ctl
NS(=O)(=O)c1cc2c(cc1Cl)N=CNS2(=O)=O [Chlorothiazide],LDH (% of ctl),[1]; [3],110.3 % of ctl
same,LDH (% of ctl),[1]; [4],110.3 % of ctl
same,activity at 100 µM,Aβ1-42; [3],104%
same,activity at 100 µM,Aβ1-42; [5],104%
same,activity at 100 µM,Aβ1-40; [3],107%
same,activity at 100 µM,Aβ1-40; [5],107%
same,MTT (% of ctl),[2]; [3],99.4 % of ctl
same,MTT (% of ctl),[2]; [4],99.4 % of ctl
CC(CCc1ccccc1)NC(C)C(O)c1ccc(O)cc1 (stereo not shown) [Nylidrin Hydrochloride],LDH (% of ctl),[1]; [3],115.6 % of ctl
same,LDH (% of ctl),[1]; [4],115.6 % of ctl
same,activity at 100 µM,Aβ1-42; [3],90.4%
same,activity at 100 µM,Aβ1-42; [5],90.4%
same,activity at 100 µM,Aβ1-40; [3],70.5%
same,activity at 100 µM,Aβ1-40; [5],70.5%
same,reduced Aβ1-40,Aβ1-40; primary screening,reduced Aβ1-40
same,MTT (% of ctl),[2]; [3],79.7 % of ctl
same,MTT (% of ctl),[2]; [4],79.7 % of ctl
COc1cc2nc(N(C)CCCNC(=O)C3CCCO3)nc(N)c2cc1OC (stereo not shown) [Alfluzosin],LDH (% of ctl),[1]; [3],95.4 % of ctl
same,LDH (% of ctl),[1]; [4],95.4 % of ctl
same,Ab1-42 (% of ctl),Aβ1-42; [3],66.9 % of ctl
same,reducing Aβ1-42,Aβ1-42; primary screening,useful in reducing Aβ1-42
same,Ab1-42 (% of ctl),Aβ1-42; [5],66.9 % of ctl
same,Ab1-40 (% of ctl),Aβ1-40; [3],122.7 % of ctl
same,Ab1-40 (% of ctl),Aβ1-40; [5],122.7 % of ctl
same,MTT (% of ctl),[2]; [3],91.8 % of ctl
same,MTT (% of ctl),[2]; [4],91.8 % of ctl
CCOC(=O)[C@H](CCc1ccccc1)N[C@@H](C)C(=O)N1[C@H](C(=O)O)C[C@H]2CCCC[C@@H]21 [Trandolapril],LDH (% of ctl),[1]; [3],95.5 % of ctl
same,LDH (% of ctl),[1]; [4],95.5 % of ctl
same,activity at 100 µM,Aβ1-42; [3],111%
same,activity at 100 µM,Aβ1-42; [5],111%
same,activity at 100 µM,Aβ1-40; [3],137%
same,activity at 100 µM,Aβ1-40; [5],137%
same,MTT (% of ctl),[2]; [3],91.5 % of ctl
same,MTT (% of ctl),[2]; [4],91.5 % of ctl
CC1=NS(=O)(=O)c2cc(Cl)ccc2N1 [Diazoxide],LDH (% of ctl),[1]; [3],112.0 % of ctl
same,LDH (% of ctl),[1]; [4],112.0 % of ctl
same,activity at 100 µM,Aβ1-42; [3],98.9%
same,activity at 100 µM,Aβ1-42; [5],98.9%
same,activity at 100 µM,Aβ1-40; [3],114%
same,activity at 100 µM,Aβ1-40; [5],114%
same,MTT (% of ctl),[2]; [3],97.8 % of ctl
same,MTT (% of ctl),[2]; [4],97.8 % of ctl
"C[C@]12CCC(=O)C=C1C=C[C@@H]1[C@@H]2CC[C@@]2(C)[C@H]1CC[C@@]2(O)CCC(=O)O [Canrenoic Acid, Potassium Salt]",LDH (% of ctl),[1]; [3],106.9 % of ctl
same,LDH (% of ctl),[1]; [4],106.9 % of ctl
same,activity at 100 µM,Aβ1-42; [3],106%
same,activity at 100 µM,Aβ1-42; [5],106%
same,activity at 100 µM,Aβ1-40; [3],101%
same,activity at 100 µM,Aβ1-40; [5],101%
same,MTT (% of ctl),[2]; [3],102.1 % of ctl
same,MTT (% of ctl),[2]; [4],102.1 % of ctl
CCCCC1=NC2(CCCC2)C(=O)N1Cc1ccc(-c2ccccc2-c2nnn[nH]2)cc1 [Irbesartan],LDH (% of ctl),[1]; [3],112.5 % of ctl
same,LDH (% of ctl),[1]; [4],112.5 % of ctl
same,activity at 100 µM,Aβ1-42; [3],82.3%
same,activity at 100 µM,Aβ1-42; [5],82.3%
same,reducing Aβ1-42,Aβ1-42; primary screening,useful in reducing Aβ1-42
same,activity at 100 µM,Aβ1-40; [3],89.7%
same,activity at 100 µM,Aβ1-40; [5],89.7%
same,MTT (% of ctl),[2]; [3],98.9 % of ctl
same,MTT (% of ctl),[2]; [4],98.9 % of ctl
NS(=O)(=O)c1cc2c(cc1Cl)NC(C1CC3C=CC1C3)NS2(=O)=O (stereo not shown) [Cyclothiazide],LDH (% of ctl),[1]; [3],110.3 % of ctl
same,LDH (% of ctl),[1]; [4],110.3 % of ctl
same,activity at 100 µM,Aβ1-42; [3],75%
same,activity at 100 µM,Aβ1-42; [5],75%
same,reducing Aβ1-42,Aβ1-42; primary screening,useful in reducing Aβ1-42
same,activity at 100 µM,Aβ1-40; [3],71.1%
same,activity at 100 µM,Aβ1-40; [5],71.1%
same,reduced Aβ1-40,Aβ1-40; primary screening,reduced Aβ1-40
same,MTT (% of ctl),[2]; [3],97.7 % of ctl
same,MTT (% of ctl),[2]; [4],97.7 % of ctl
